# Experimental data as given in patent US6805816B1, “Method of producing π-conjugated polymers” (Bayer Aktiengesellschaft, priority 1999, dated 2004).
# Tests used:
# physchem = experiment: physchem
# From the text: The cyclodextrin employed was in each case 2,6-dimethyl-β-cyclodextrin.
# [1] = Stability: discoloration in air; details: Monomer alone; in air after only a few hours
SMILES,increase of water solubility (physchem),"solubility (physchem; 20 °C, water) [µg/mL]",Stability [1]
"c1scc2c1OCCO2 [EDT, 3,4-ethylenedioxythiophene]",more than 30 fold,2100,
"c1cc[nH]c1 [Pyrrole, pyrrole]",,,Pyrrole: discoloration
